US6864233B2, “Fungicidal echinocandin derivatives and their preparation” (Aventis Pharma S.A., priority 2000, dated 2005)
*1 amine or outer side, *2 acyl side, *3 side chain or, on linkers, in order; H or OH if unused. Where a SMILES comes first, the peptide text is derived from it. Bridges are numbered along the chain shown (N, C = ends). [ ]: non-standard residue; d: D form. The star is where a group is joined. ξ: configuration not given here. X1 = CC(C)=CCCC(C)C1CCC2(C)C3=C(CCC12C)C1(C)CCC(OC(=O)*)C(C)(C)C1CC3; ξOrn(4,5-diOH) = O=C(C(CC(O)C(O)N[*:3])N[*:1])[*:2]; ξhTyr(βOH) = NC(C(=O)O)C(O)Cc1ccc(O)cc1; ξPro(3ξ-OH,4ξ-Me) = CC1CNC(C(=O)O)C1O; Hyp = O=C(O)[CH]1C[CH](O)CN1

Molecular target: T1, Glucan Synthase of Candida Albicans (Candida albicans, UniProt O13428)
T1 construct: 22.5 μg of membrane proteins are incubated in a mixture of 2 mM of; endogenous in cells
Assay: Inhibition of the glucan synthase of Candida albicans (14C-UDP glucose incorporation, membrane preparation)
Type: biochemical
Conditions: Candida albicans membranes, 25° C., 1 hour; result in words
Procedure: A—Inhibition of the Glucan Synthase of Candida Albicans.
Candida albicans membranes are purified according to the process described by Tang et al Antimicrob. Agents Chemother 35, 99-103, 1991. 22.5 μg of membrane proteins are incubated in a mixture of 2 mM of ^14C-UDP glucose (specific activity=0.34 mCi./mmol, 50 μg of a α-amylase, 1 mM of dithiotreitol (DTT), 1 mM EDTA, 100 mM NaF, 7 μM of GTP-γ-S, 1M of sucrose and 50 mM of Tris-HCL (pH 7.8) in a volume of 100 μl. The medium is incubated at 25° C. for 1 hour and the reaction is terminated by adding TCA at a final concentration of 5%. The reaction mixture is transferred onto a pre-moistened glass fibre filter. The filter is washed, dried and its radioactivity is counted. Mulundocandin is used as a positive control. Control of the vehicle is carried out with the same quantity of 1% DMSO.

T1 sequence (O13428 1-1897): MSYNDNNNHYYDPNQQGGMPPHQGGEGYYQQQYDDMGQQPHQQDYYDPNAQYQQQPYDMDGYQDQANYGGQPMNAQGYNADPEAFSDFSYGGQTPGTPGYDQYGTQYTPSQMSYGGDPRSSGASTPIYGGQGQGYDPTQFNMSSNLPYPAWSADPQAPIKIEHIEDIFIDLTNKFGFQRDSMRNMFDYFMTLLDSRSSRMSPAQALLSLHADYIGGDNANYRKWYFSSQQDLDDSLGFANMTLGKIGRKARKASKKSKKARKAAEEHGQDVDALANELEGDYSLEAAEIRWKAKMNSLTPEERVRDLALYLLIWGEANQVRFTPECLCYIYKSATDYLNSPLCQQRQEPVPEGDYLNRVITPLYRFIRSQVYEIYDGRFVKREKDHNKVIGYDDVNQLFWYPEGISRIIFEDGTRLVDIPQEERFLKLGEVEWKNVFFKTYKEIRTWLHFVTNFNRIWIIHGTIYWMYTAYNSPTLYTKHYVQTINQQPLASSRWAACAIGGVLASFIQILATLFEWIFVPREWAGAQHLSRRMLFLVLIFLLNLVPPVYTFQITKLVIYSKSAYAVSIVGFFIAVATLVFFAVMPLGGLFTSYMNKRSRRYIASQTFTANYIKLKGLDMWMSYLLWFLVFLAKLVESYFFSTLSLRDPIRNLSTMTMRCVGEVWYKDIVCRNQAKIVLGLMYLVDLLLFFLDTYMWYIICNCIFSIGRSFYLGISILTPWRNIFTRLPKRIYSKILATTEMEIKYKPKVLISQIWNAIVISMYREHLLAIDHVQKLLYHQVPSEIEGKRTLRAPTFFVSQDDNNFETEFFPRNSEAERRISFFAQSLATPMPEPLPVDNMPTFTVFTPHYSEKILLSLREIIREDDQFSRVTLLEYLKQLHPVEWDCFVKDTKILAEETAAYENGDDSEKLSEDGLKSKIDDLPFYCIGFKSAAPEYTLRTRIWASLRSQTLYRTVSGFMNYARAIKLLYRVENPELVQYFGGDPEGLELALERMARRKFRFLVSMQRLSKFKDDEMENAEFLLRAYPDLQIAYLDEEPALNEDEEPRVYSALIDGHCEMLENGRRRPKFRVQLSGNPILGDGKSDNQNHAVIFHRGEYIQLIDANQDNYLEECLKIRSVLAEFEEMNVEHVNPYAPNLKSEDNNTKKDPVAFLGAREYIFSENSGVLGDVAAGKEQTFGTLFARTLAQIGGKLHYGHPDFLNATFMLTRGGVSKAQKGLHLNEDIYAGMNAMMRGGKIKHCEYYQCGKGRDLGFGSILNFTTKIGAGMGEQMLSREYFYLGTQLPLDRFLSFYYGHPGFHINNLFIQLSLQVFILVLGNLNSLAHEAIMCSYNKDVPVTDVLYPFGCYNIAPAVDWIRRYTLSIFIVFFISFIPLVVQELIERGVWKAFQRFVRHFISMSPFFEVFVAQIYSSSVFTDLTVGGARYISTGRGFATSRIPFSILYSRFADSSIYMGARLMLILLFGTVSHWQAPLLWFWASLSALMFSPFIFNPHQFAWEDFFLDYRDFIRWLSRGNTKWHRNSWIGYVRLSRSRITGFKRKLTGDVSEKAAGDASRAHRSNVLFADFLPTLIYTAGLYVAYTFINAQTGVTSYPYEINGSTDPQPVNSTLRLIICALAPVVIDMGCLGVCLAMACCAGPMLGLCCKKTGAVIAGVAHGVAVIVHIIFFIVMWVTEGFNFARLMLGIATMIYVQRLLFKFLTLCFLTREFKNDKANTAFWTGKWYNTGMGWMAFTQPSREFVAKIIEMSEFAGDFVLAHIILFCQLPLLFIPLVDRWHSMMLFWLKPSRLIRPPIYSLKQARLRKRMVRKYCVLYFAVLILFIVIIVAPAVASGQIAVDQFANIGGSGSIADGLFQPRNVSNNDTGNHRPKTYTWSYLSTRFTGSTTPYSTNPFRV
T1 sequence (O42825 1-195 partner limits assumed): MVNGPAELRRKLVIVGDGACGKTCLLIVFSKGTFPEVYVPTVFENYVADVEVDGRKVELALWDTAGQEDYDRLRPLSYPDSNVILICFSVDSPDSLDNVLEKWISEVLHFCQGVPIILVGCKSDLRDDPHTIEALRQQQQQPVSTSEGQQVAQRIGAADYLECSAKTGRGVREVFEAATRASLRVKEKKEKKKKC

| Molecule | Inhibition of the Glucan Synthase of Candida Albicans |
| --- | --- |
| 1-[(4R,5R)-4,5-dihydroxy-N2-[[[(3β, 22E)-ergosta-5,7,22-trien-3-yl]oxy]carbonyl]-L-ornithine]-mulundocandin [Example 3] | good activity |
| CC(C)=CCCC(C)C1CCC2(C)C3=C(CCC12C)C1(C)CCC(OC(=O)NC2CC(O)C(O)NC(=O)C(CO)NC(=O)C4C(O)C(C)CN4C(=O)C(C(O)Cc4ccc(O)cc4)NC(=O)C4CC(O)CN4C(=O)C(C(C)O)NC2=O)C(C)(C)C1CC3 [Example 2, 1-[(4R,5R)-4,5-dihydroxy-N2-[[[(3β)-lanosta-8,24-dien-3-yl]oxy]carbonyl]-L-ornithine]-deoxymulundocandin] (X1-[ξOrn(4,5-diOH)]T[Hyp][ξhTyr(βOH)][ξPro(3ξ-OH,4ξ-Me)]S; lactam 1-C; configuration not given here) | good activity |
